Experimental data: patent US10080757B2 (WISCONSIN ALUMNI RESEARCH FOUNDATION, priority 2016, dated 2018)
Values after ≈ are worked out from the molar mass of the structure shown. “Also recorded” adds a separate entry of the source. Where two headings read alike, the source gives them in different places.

What was measured:
recombinant MtbUGM = target: T1, recombinant MtbUGM (Mycobacterium tuberculosis, UniProt P9WIQ1); assay: biochemical
T1 construct: made in house

M. smegmatis [1] = assay: Agar disk diffusion assay; set-up: zone of inhibition: dose or concentration left out as unconfirmed; conditions: for zone of inhibition: Mycolicibacterium smegmatis, read-out: Inhibition zone; for Mycobacterial growth inhibition (in words): disk diffusion, solid media
Experimental: M. smegmatis was grown to saturation over 48 hours at 37° C. in Middlebrook 7H9 media with Albumin Dextrose Catalase (ADC) enrichment and 0.05% Tween80. The culture was diluted to OD600=˜0.2 in LB liquid media and 100 μL of dilute culture was spread onto LB agar plates, then allowed to soak into the agar for 1 hour at room temperature. Sterile disks (3 mm diameter) were impregnated with a solution of inhibitor in DMSO (1.5 μL) and placed on top of the bacterial lawn. […] The plates were incubated for 72 hours at 37° C., at which point a lawn of bacteria was visible. Zones of inhibition were measured as the average diameter of the region around a cloning disk where bacterial growth was not visible. For each disk, three diameter measurements were taken and averaged.

CeUGM = CeUGM inhibition; type: biochemical, C. elegans
C. elegans [2] = assay: C. elegans growth and proliferation; type: in vivo; conditions: for Prevention of C. elegans maturation to adulthood and eventual proliferation: 100 μM; for Effective inhibitor of C. elegans growth at 250 μM / Inhibition of C. elegans proliferation: 250 μM
[3] = Aggregation by Dynamic Light Scattering (DLS); type: physicochemical; conditions: for Aggregates observed?: 50 mM sodium phosphate buffer, 1% DMSO; for Aggregation by DLS: concentrations up to 50 μM
Experimental: A representative subset of the compounds (1, 2, and 4) were evaluated for aggregation by Dynamic Light Scattering (DLS), see Table 1. Samples for DLS analysis were prepared in 50 mM sodium phosphate buffer from DMSO inhibitor stocks, at a final DMSO concentration of 1%, and a range of final concentrations of inhibitor.

M. smegmatis [4] = assay: Microplate Alamar Blue Assay (MIC, liquid culture); type: cell-based; conditions: Mycolicibacterium smegmatis
Experimental: The culture was diluted to OD600=˜0.02 in LB liquid media and added to 96-well plates at a final volume of 100 μL, with added inhibitor concentrations in two-fold dilutions. Perimeter wells were filled with sterile water. After 24 hours at 37° C. in a shaking incubator, 10 μL of the Alamar Blue reagent was added to each well. The plate was incubated for an additional 4 hours at 37° C., at which point fluorescence emission at 585 nm was measured using a plate reader. The lowest inhibitor concentration at which 99% or greater growth inhibition was observed was determined to be the MIC.

C. elegans [5] = assay: Bleach sensitivity assay (time until first rupture); type: in vivo; conditions: 50 microM; adult worms
Experimental: Compounds were tested at 50 microM. Adult worms (C. elegans) were chosen for testing and time until first rupture was measured when worms were placed in a bleach, sodium hydroxide solution. […] A graph showing results is provided as FIG. 4. Each treatment group has approximately an n=20. The Thompson Tau technique was used to determine statistical outliers.

C. elegans [6] = assay: C. elegans growth and proliferation; type: in vivo; conditions: threshold below which proliferation occurs at decreased rate
Description: As concentration decreases, each of these compounds reaches a threshold where they no longer prevent worm proliferation, but rather cause retarded growth and development. The concentration that appears to be this threshold is reported above. Below this concentration, C. elegans growth and proliferation occur, but at a decreased rate with visible ill effects to the animal.

[7] = 50 μM compound (FIG. 1), read-out: Inhibition of MtbUGM activity
[8] = Table 2, standard deviation, n = 3
[9] = Table 3, liquid media, at least 99% growth inhibition

T1 sequence (P9WIQ1 whole entry): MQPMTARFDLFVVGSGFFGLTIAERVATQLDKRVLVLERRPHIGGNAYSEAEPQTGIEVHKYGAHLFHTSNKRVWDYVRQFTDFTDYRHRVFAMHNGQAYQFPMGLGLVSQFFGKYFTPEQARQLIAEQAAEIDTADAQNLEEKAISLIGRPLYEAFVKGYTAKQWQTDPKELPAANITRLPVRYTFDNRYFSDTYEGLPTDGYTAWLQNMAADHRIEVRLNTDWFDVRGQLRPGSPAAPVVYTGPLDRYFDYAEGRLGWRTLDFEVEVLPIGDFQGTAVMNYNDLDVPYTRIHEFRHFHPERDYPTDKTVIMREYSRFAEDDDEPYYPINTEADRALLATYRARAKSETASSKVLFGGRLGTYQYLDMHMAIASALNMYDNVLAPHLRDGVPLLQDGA

## O=C(O)C(Cc1ccc(I)cc1)Nc1nc(-c2ccc(Cl)c(Cl)c2)cs1 (stereo not drawn) [Compound 1, 2-((4-(3,4-Dichlorophenyl)thiazol-2-yl)amino)-3-(4-iodophenyl)propanoic acid]
Recombinant MtbUGM; [7]
  inhibition at 50 µM: > 90%
Recombinant MtbUGM; [8]
  IC50: 6 µM
M. smegmatis [1]
  zone of inhibition: 5 ± 0.1 mm
CeUGM
  CeUGM % Inhibition at 2.5 μM: 69.5 ± 1.2%
C. elegans [2]; Table 7
  Effective inhibitor of C. elegans growth at 250 μM: No
[3]; Conc. 10 uM
  Aggregates observed?: No
[3]; Conc. 25 uM
  Aggregates observed?: No
[3]; Conc. 50 uM
  Aggregates observed?: No
[3]; Conc. 100 uM
  Aggregates observed?: Yes
[3]
  Aggregation by DLS: No aggregation was observed
M. smegmatis [4]; [9]
  MIC: 50 µM (≈ 26 µg/mL)

## CS(=O)(=O)NC(=O)C(Cc1ccc(I)cc1)Nc1nc(-c2ccc(Cl)c(Cl)c2)cs1 (stereo not drawn) [Compound 2, 2-((4-(3,4-dichlorophenyl)thiazol-2-yl)amino)-3-(4-iodophenyl)-N-(methylsulfonyl)propanamide]
Recombinant MtbUGM; [7]
  inhibition at 50 µM: > 90%
Recombinant MtbUGM; [8]
  IC50: 12 ± 5 µM
M. smegmatis [1]
  zone of inhibition: 7 ± 0.1 mm
CeUGM
  CeUGM % Inhibition at 2.5 μM: 80.7 ± 1.1%
C. elegans [2]
  Prevention of C. elegans maturation to adulthood and eventual proliferation: show the ability to prevent C. elegans maturation to adulthood and eventual proliferation
  Inhibition of C. elegans proliferation: significantly inhibit
C. elegans [2]; Table 7
  Effective inhibitor of C. elegans growth at 250 μM: Yes
C. elegans [5]
  Time until first rupture in bleach, sodium hydroxide solution: enhances bleach sensitivity significantly; also recorded: statistically significant decrease
C. elegans [6]
  Apparent MIC (μM) to inhibit C. elegans propagation: 100 µM
[3]; Conc. 10 uM
  Aggregates observed?: No
[3]; Conc. 25 uM
  Aggregates observed?: No
[3]; Conc. 50 uM
  Aggregates observed?: No
[3]; Conc. 100 uM
  Aggregates observed?: No
[3]
  Aggregation by DLS: No aggregation was observed
M. smegmatis [4]; [9]
  MIC: 25 µM (≈ 14.9 µg/mL)

## O=C(NS(=O)(=O)C(F)(F)F)C(Cc1ccc(I)cc1)Nc1nc(-c2ccc(Cl)c(Cl)c2)cs1 (stereo not drawn) [Compound 3, 2-((4-(3,4-dichlorophenyl)thiazol-2-yl)amino)-3-(4-iodophenyl)-N-((trifluoromethyl)sulfonyl)propanamide]
Recombinant MtbUGM; [8]
  IC50: 16 ± 10 µM
M. smegmatis [1]
  zone of inhibition: 7.7 ± 0.6 mm
CeUGM
  CeUGM % Inhibition at 2.5 μM: 84.8 ± 2.2%
C. elegans [2]
  Prevention of C. elegans maturation to adulthood and eventual proliferation: show the ability to prevent C. elegans maturation to adulthood and eventual proliferation
  Inhibition of C. elegans proliferation: significantly inhibit
C. elegans [2]; Table 7
  Effective inhibitor of C. elegans growth at 250 μM: Yes
C. elegans [6]
  Apparent MIC (μM) to inhibit C. elegans propagation: 100 µM
M. smegmatis [4]; [9]
  MIC: 50 µM (≈ 32.5 µg/mL)

## O=C(NS(=O)(=O)c1ccccc1)C(Cc1ccc(I)cc1)Nc1nc(-c2ccc(Cl)c(Cl)c2)cs1 (stereo not drawn) [Compound 4, 2-((4-(3,4-dichlorophenyl)thiazol-2-yl)amino)-3-(4-iodophenyl)-N-(phenylsulfonyl)propanamide]
Recombinant MtbUGM; [8]
  IC50: 7 ± 2 µM
M. smegmatis [1]
  zone of inhibition: 7.3 ± 0.6 mm
CeUGM
  CeUGM % Inhibition at 2.5 μM: 92.2 ± 0.2%
C. elegans [2]
  Inhibition of C. elegans proliferation: significantly inhibit
C. elegans [2]; Table 7
  Effective inhibitor of C. elegans growth at 250 μM: Yes
C. elegans [5]
  Time until first rupture in bleach, sodium hydroxide solution: enhances bleach sensitivity significantly; also recorded: statistically significant decrease
C. elegans [6]
  Apparent MIC (μM) to inhibit C. elegans propagation: 250 µM
[3]; Conc. 10 uM
  Aggregates observed?: No
[3]; Conc. 25 uM
  Aggregates observed?: No
[3]; Conc. 50 uM
  Aggregates observed?: No
[3]; Conc. 100 uM
  Aggregates observed?: Yes
[3]
  Aggregation by DLS: No aggregation was observed
M. smegmatis [4]; [9]
  MIC: 25 µM (≈ 16.5 µg/mL)

## O=C(NS(=O)(=O)c1ccc([N+](=O)[O-])cc1)C(Cc1ccc(I)cc1)Nc1nc(-c2ccc(Cl)c(Cl)c2)cs1 (stereo not drawn) [Compound 5, 2-((4-(3,4-dichlorophenyl)thiazol-2-yl)amino)-3-(4-iodophenyl)-N-((4-nitrophenyl)sulfonyl)propanamide]
Recombinant MtbUGM; [8]
  IC50: 4 ± 1 µM
M. smegmatis [1]
  zone of inhibition: 4.2 ± 0.3 mm
CeUGM
  CeUGM % Inhibition at 2.5 μM: 93.2 ± 0.1%
C. elegans [2]
  Inhibition of C. elegans proliferation: significantly inhibit
C. elegans [2]; Table 7
  Effective inhibitor of C. elegans growth at 250 μM: Yes
C. elegans [6]
  Apparent MIC (μM) to inhibit C. elegans propagation: 125 µM
M. smegmatis [4]; [9]
  MIC: 50 µM (≈ 35.2 µg/mL)

## COc1ccc(S(=O)(=O)NC(=O)C(Cc2ccc(I)cc2)Nc2nc(-c3ccc(Cl)c(Cl)c3)cs2)cc1 (stereo not drawn) [Compound 6, 2-((4-(3,4-dichlorophenyl)thiazol-2-yl)amino)-3-(4-iodophenyl)-N-((4-methoxyphenyl)sulfonyl)propanamide]
Recombinant MtbUGM; [8]
  IC50: 18 ± 9 µM
M. smegmatis [1]
  zone of inhibition: 6 ± 0.1 mm
CeUGM
  CeUGM % Inhibition at 2.5 μM: 92.4 ± 1.2%
C. elegans [2]; Table 7
  Effective inhibitor of C. elegans growth at 250 μM: No
M. smegmatis [4]; [9]
  MIC: 25 µM (≈ 17.2 µg/mL)

## Cc1ccc(S(=O)(=O)NC(=O)C(Cc2ccc(I)cc2)Nc2nc(-c3ccc(Cl)c(Cl)c3)cs2)cc1 (stereo not drawn) [Compound 7, 2-((4-(3,4-dichlorophenyl)thiazol-2-yl)amino)-3-(4-iodophenyl)-N-tosylpropanamide]
Recombinant MtbUGM; [8]
  IC50: 1 ± 1 µM
M. smegmatis [1]
  zone of inhibition: 6 ± 0.6 mm
  Mycobacterial growth inhibition (in words): inactivity
CeUGM
  CeUGM % Inhibition at 2.5 μM: 90.5 ± 0.2%
C. elegans [2]; Table 7
  Effective inhibitor of C. elegans growth at 250 μM: No
M. smegmatis [4]; [9]
  MIC: 12.5 µM (≈ 8.4 µg/mL)

## O=C(NS(=O)(=O)c1ccc(Cl)cc1)C(Cc1ccc(I)cc1)Nc1nc(-c2ccc(Cl)c(Cl)c2)cs1 (stereo not drawn) [Compound 8, N-((4-chlorophenyl)sulfonyl)-2-((4-(3,4-dichlorophenyl)thiazol-2-yl)amino)-3-(4-iodophenyl)propanamide]
Recombinant MtbUGM; [8]
  IC50: 3 ± 1 µM
M. smegmatis [1]
  zone of inhibition: 6.3 ± 0.6 mm
CeUGM
  CeUGM % Inhibition at 2.5 μM: 100 ± 0%
C. elegans [2]
  Inhibition of C. elegans proliferation: significantly inhibit
C. elegans [2]; Table 7
  Effective inhibitor of C. elegans growth at 250 μM: Yes
C. elegans [6]
  Apparent MIC (μM) to inhibit C. elegans propagation: 250 µM
M. smegmatis [4]; [9]
  MIC: 12.5 µM (≈ 8.66 µg/mL)

## O=C(NS(=O)(=O)c1ccccc1[N+](=O)[O-])C(Cc1ccc(I)cc1)Nc1nc(-c2ccc(Cl)c(Cl)c2)cs1 (stereo not drawn) [Compound 9, 2-((4-(3,4-dichlorophenyl)thiazol-2-yl)amino)-3-(4-iodophenyl)-N-((2-nitrophenyl)sulfonyl)propanamide]
Recombinant MtbUGM; [8]
  IC50: 2 ± 1 µM
M. smegmatis [1]
  zone of inhibition: 5.7 ± 0.1 mm
CeUGM
  CeUGM % Inhibition at 2.5 μM: 92.1 ± 1.0%
C. elegans [2]
  Inhibition of C. elegans proliferation: significantly inhibit
C. elegans [2]; Table 7
  Effective inhibitor of C. elegans growth at 250 μM: Yes
C. elegans [6]
  Apparent MIC (μM) to inhibit C. elegans propagation: 125 µM
M. smegmatis [4]; [9]
  MIC: 12.5 µM (≈ 8.79 µg/mL)

## COC(=O)C(Cc1ccc(I)cc1)Nc1nc(-c2ccc(Cl)c(Cl)c2)cs1 (stereo not drawn) [Compound 10, Methyl 2-((4-(3,4-dichlorophenyl)thiazol-2-yl)amino)-3-(4-iodophenyl)propanoate]
Recombinant MtbUGM; [7]
  inhibition at 50 µM: 30%
M. smegmatis [1]
  Mycobacterial growth inhibition (in words): no mycobacterial growth inhibition was observed
C. elegans [2]; Table 7
  Effective inhibitor of C. elegans growth at 250 μM: No

## O=C(CC1Sc2nnc(Cc3ccc(Br)cc3)n2N=C1c1ccc(Cl)cc1)NS(=O)(=O)c1ccccc1 (stereo not drawn) [Compound 13, 2-(3-(4-bromobenzyl)-6-(4-chlorophenyl)-7H-[1,2,4]triazolo[3,4-b][1,3,4]thiadiazin-7-yl)-N-(phenylsulfonyl)acetamide]
Recombinant MtbUGM; 50 μM, mean of two replicates, read-out: % inhib MtbUGM (50 μM)
  inhibition at 50 µM: 92%
Recombinant MtbUGM; 100 μM, mean of two replicates, read-out: % inhib MtbUGM (100 μM)
  inhibition at 100 µM: 94%
Recombinant MtbUGM; Table 4
  IC50: 19 ± 6 µM
CeUGM; 10 μM
  CeUGM % Inhibition at 10 μM: 91.7 ± 0.5%
C. elegans [2]
  Inhibition of C. elegans proliferation: significantly inhibit
C. elegans [2]; Table 8
  Effective inhibitor of C. elegans growth at 250 μM: Yes
C. elegans [6]
  Apparent MIC (μM) to inhibit C. elegans propagation: 250 µM
M. smegmatis [4]; Table 4
  MIC: 125 µM (≈ 77.1 µg/mL)
